Patent US11402382B2, “Diagnostic and therapeutic methods for cancer” (Genentech, Inc., priority 2017, dated 2022)

How the values were obtained:
[1] = system: previously untreated metastatic renal cell carcinoma (mRCC); assay: IMmotion150: PFS and ORR in PD-L1 IHC and gene expression signature (Teff, Angio, Myeloid) subgroups; assay type: in vivo, human; details: for PFS HR (95% CI) vs Sun: unstratified
Description: PD-L1 status on tumor-infiltrating immune cells (IC) was assessed in the phase II IMmotion150 study by immunohistochemistry (IHC) using the anti-human PD-L1 rabbit monoclonal antibody, SP142, and scored using an identical IHC scoring criteria (IC1/2/3=≥1% of tumor-infiltrating lymphocytes are PD-L1-positive; IC2/3=≥5% of tumor-infiltrating lymphocytes are PD-L1-positive) (n=297). PD-L1 status can be assessed as described in International Patent Application Publication Nos. WO 2016/183326 and WO 2016/196298. Mutation evaluations by whole exome sequencing (WES) and gene expression analyses by RNA-Seq (n=263) were also performed. For the gene expression analyses, gene expression levels were evaluated for T effector and IFNγ response (Teff) genes (CD8A, IFNG, PRF1, EOMES, and PD-L1), as well as for angiogenesis-related (Ang) genes (VEGFA, KDR, ESM1, PECAM1, ANGPTL4, and CD34), and myeloid inflammation-related (Myeloid) genes (IL6, CXCL1, CXCL2, CXCL3, CXCL8, and PTGS2). The Teff genes at low expression levels (i.e., below the median expression levels of the evaluated Teff genes; “Teff low”) and high expression levels (i.e., at or above the median expression levels of the evaluated Teff genes; “Teff high”) were evaluated in relation to progress-free survival (PFS) per RECIST v.1.1 via Independent Review Facility (IRF) assessment. The Ang genes at low expression levels (i.e., below the median expression levels of the evaluated Ang genes; “Ang low”) and high expression levels (i.e., at or above the median expression levels of the evaluated Ang genes; “Ang high”) were also evaluated in relation to PFS per RECIST v.1.1 via IRF assessment. The Myeloid genes at low expression levels (i.e., below the median expression levels of the evaluated Myeloid genes; “Myeloid low”) and high expression levels (i.e., at or above the median expression levels of the evaluated Myeloid genes; “Myeloid high”) were also evaluated in relation to PFS per RECIST v.1.1 via IRF assessment. To determine the median expression levels, first a Z-score was calculated for the normalized expression of all of the genes in a group. The median level of all the Z-scores across the dataset was used as a reference level to identify biomarker high versus biomarker low subgroups.
Tumor specimens from patients acquired <12 months prior to study treatment were required for enrollment in the study. Tissue was prospectively tested for PD-L1 expression on IC by a central laboratory using the SP142 IHC assay (VENTANA, Tucson, Ariz.). IC staining was defined as follows: any discernible PD-L1 staining of any intensity in IC covering <1% or absent, between ≥1% and <5%, between ≥5% and <10%, or ≥10% of tumor area.
Kaplan-Meier methodology was used to estimate the median PFS for each treatment arm, and Kaplan-Meier curves were produced. The primary analysis was triggered when 140 INV-PFS events occurred among patients treated with atezolizumab+bevacizumab and with sunitinib or among patients treated with atezolizumab alone and with sunitinib, whichever occurred later. […] The stratification factors included prior nephrectomy, tumor PD-L1 status, and MSKCC score and were determined based on data from the electronic case report form; if such data were missing, data collected by the IxRS at the time of randomization were used. Tumor specimens were prospectively tested for PD-L1 expression on ICs by a central laboratory using the SP142 IHC assay (VENTANA, Tucson, Ariz.). IC staining was defined as follows: any discernible PD-L1 staining of any intensity in IC covering <1% or absent (ICO), between ≥1% and <5% (IC1), between ≥5% and <10% (IC2), or ≥10% (IC3) of tumor area occupied by tumor cells, associated intratumoral, and contiguous peri-tumoral desmoplastic stroma.
Whole transcriptome profiles were generated for 263 patients using TRUSEQ® RNA Access technology (ILLUMINA®). RNAseq reads were first aligned to ribosomal RNA sequences to remove ribosomal reads. […]

[2] = in vivo
Description: Study treatment consisted of atezolizumab 1200 mg fixed intravenous dose +bevacizumab 15 mg/kg every three weeks, atezolizumab 1200 mg fixed intravenous dose every three weeks, or sunitinib 50 mg/day orally for four weeks followed by two weeks of rest. On disease progression (as assessed by the investigator per RECIST v1.1), patients randomized to atezolizumab monotherapy or sunitinib had the option to cross over and receive the atezolizumab+bevacizumab combination in some regions (option was not available in Europe). In the absence of unacceptable toxicity, treatment with the combination continued until evidence of progressive disease. Where permitted, patients in the atezolizumab-containing arms could continue to be treated beyond disease progression per RECIST v1.1 until lack of clinical benefit; those in non-European nations could cross over to atezolizumab+bevacizumab therapy at any time after disease progression per RECIST v1.1, provided all eligibility criteria were met.

[3] = Teff^HighMyeloid^High vs Teff^HighMyeloid^Low
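Throughout, for Colitis: Open-label multicenter randomized phase 2 trial with three treatment arms, safety set restricted to patients who actually received study drug.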
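Throughout, for Decreased blood cortisol/adrenal insufficiency: Open-label multicenter randomized phase 2 trial with three treatment arms, safety set restricted to patients who actually received study drug.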
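Throughout, for Pneumonitis: Open-label multicenter randomized phase 2 trial with three treatment arms, safety set restricted to patients who actually received study drug.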
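Throughout, for TSH decreased/hypothyroidism: Open-label multicenter randomized phase 2 trial with three treatment arms, safety set restricted to patients who actually received study drug.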

CCN(CC)CCNC(=O)c1c(C)[nH]c(/C=C2\C(=O)Nc3ccc(F)cc32)c1C [Sunitinib, N-[2-(Diethylamino)ethyl]-5-[(Z)-(5-fluoro-2-oxo-1,2-dihydro-3H-indol-3-ylidene)methyl]-2,4-dimethyl-1H-pyrrole-3-carboxamide]
ORR ([1]; Angio^High subgroup): 45% | PFS HR (95% CI), within arm analysis ([1]; Angio^High vs Angio^Low): 0.31 | ORR ([1]; Angio^Low subgroup): 10% | PFS HR (95% CI), within arm analysis ([1]; Myeloid^High vs Myeloid^Low): 0.82 | PFS HR (95% CI), within arm analysis ([1]; Teff^High vs Teff^Low): 1.31 | PFS HR (95% CI), within arm analysis [1, 3]: 1.10

Atezo: anti-PD-L1 antibody atezolizumab (CAS Registry Number: 1422185-06-5), Genentech, also known as MPDL3280A
Colitis [2]: 0 n | Decreased blood cortisol/adrenal insufficiency [2]: 0 n | Pneumonitis [2]: 0 n | TSH decreased/hypothyroidism [2]: 0 n | TSH increased/hyperthyroidism [2]: 0 n | treatment-related AE leading to discontinuation of treatment: demyelination [2]: 1% | treatment-related AE leading to discontinuation of treatment: nephritis [2]: 1% | treatment-related AE leading to discontinuation of treatment: pancreatitis [2]: 1% | PFS HR (95% CI) vs Sunitinib ([1]; Ang high (Angio^High) subgroup): 1.46 | PFS HR (95% CI) vs Sunitinib ([1]; Ang low (Angio^Low) subgroup): 0.75 | PFS HR (95% CI), within arm analysis ([1]; Angio^High vs Angio^Low): 0.74 | PFS HR (95% CI) vs Sunitinib ([1]; Myeloid^High subgroup): 2.03 | PFS HR (95% CI), within arm analysis ([1]; Myeloid^High vs Myeloid^Low): 2.98 | PFS HR (95% CI) vs Sunitinib ([1]; Myeloid^Low subgroup): 0.53 | PFS HR (95% CI) vs Sun ([1]; PD-L1 IHC IC1/2/3): 0.97 | PFS HR (95% CI) vs Sun ([1]; PD-L1 IHC IC2/3): 0.54 | PFS HR (95% CI) vs Sunitinib ([1]; Teff high subgroup (at or above median)): 0.85 | PFS HR (95% CI) vs Sunitinib ([1]; Teff low subgroup (below median)): 1.33 | PFS HR (95% CI) vs Sunitinib ([1]; Teff^High Myeloid^High subgroup): 1.81 | PFS HR (95% CI) vs Sunitinib ([1]; Teff^High Myeloid^Low subgroup): 0.47 | PFS HR (95% CI), within arm analysis ([1]; Teff^High vs Teff^Low): 0.83 | PFS HR (95% CI), within arm analysis [1, 3]: 3.82
